For 36 molecules, melting point results are on record in a melting point compilation (Tetko et al.; mined from patent text by program, amines drawn as free bases though some values may be those of a salt).

Each structure is given as a SMILES string.

Broadly, the melting point is the temperature of the solid-liquid transition. For `c1ccc(OCCn2c(CC3CC3)nc3cnc4cc(-c5ccccc5)ccc4c32)cc1`, the melting point was 175 to 176 °C.
In turn, `CC(C)=CCC/C(C)=C/CC/C(C)=C/CC/C(C)=C/CON1C(=O)c2ccccc2C1=O` had a melting point of 40 to 41 °C.
As to `O=C(O)c1ccc(CN2C(=O)C3(COc4cc5c(cc43)OCCO5)c3ccccc32)cc1` (stereo unspecified), the melting point fell in the range of 234 to 237 °C.
`[N-]=[N+]=Nc1cc(Cl)nc(-c2ccco2)n1` yielded a melting point of 117 to 119 °C.
In turn, `Cc1ccc(-c2cccc(/C=C/C(=O)Nc3ccc(CN4CCCCC4CCO)cc3)c2)cc1` (stereo unspecified) registered a melting point of 142 to 143 °C.
With `COc1cc(-c2ccccc2)nc(-c2ccc(CBr)cc2)n1`, the melting point lay in the range of 98 to 100 °C.
Then `CCN(CC)CC(=O)c1cc(C(=O)c2ccc3ccccc3c2)cn1C`, with 130 to 132 °C; and `O=C(NCCCC(NC(=O)c1ccccc1)C(O)C(F)(F)F)c1ccccc1` (stereo unspecified), with 103 °C.
The molecule `O=C(NCC12CC3CC(CC(C3)C1)C2)c1c(Cl)ccc2nc(N3CCC(C(=O)NO)CC3)ccc12` showed a melting point of 189 to 196 °C.
Then `CCOC(=O)CC1(Cc2ccncc2)C(=O)N(N2CCOCC2)c2ccccc21` (stereo unspecified), with 168 °C; and `CCCCCCCCCCCCc1c[nH]c2cc(C(=O)O)ccc12`, with 181 to 184 °C; and `CONS(=O)(=O)c1cccc([N+](=O)[O-])c1`, with 111 to 113 °C.
For the molecule `COc1ccc(C(=O)Nc2ccccc2)cc1NCc1cccc(C#N)c1`, the melting point was 172 to 174 °C.
`Cc1nc(-c2cc(Cl)ccc2Cl)n2c1nnc1ccc(-c3cc(Cl)ccc3Cl)cc12` displayed a melting point of 190 to 193 °C.
For the molecule `COC(C)=CC(=O)Nc1cccc(OC(=O)NC(C)C)c1`, the melting point stood at 210 °C.
Under `N#Cc1ccc(C(=O)[C@H]2C[C@H]2C(=O)O)cc1` (relative stereo) stands 180 to 182 °C.
`COC(=O)C1c2ccc(OC)cc2SC1c1ccc(OC)cc1` (stereo unspecified) yielded a melting point of 98.3 to 99.8 °C.
As for `O=C(O)c1cccc2nnsc12`, the melting point lay within 239 to 240 °C.
`CN1C(=O)C(NC(=O)CCCCc2ccccc2)N=C(N2CCCCCC2)c2ccccc21` (stereo unspecified) yielded a melting point of 140 to 141 °C.
Turning to `COc1cc(OC)nc(Oc2cccc3c2C(=O)OC3O)n1` (stereo unspecified), the melting point is 143 to 145 °C.
Then `C[C@H](NS(=O)(=O)c1ccc2c(Cl)cnc(Cl)c2c1)C(=O)OC(C)(C)C`, with 115 to 119 °C; and `Cc1cc(C(C)(C)CC(C)(C)C)c(O)c(C)c1CC(N)=O`, with 179 to 181 °C; and `Cc1nc2c(-c3cccc(N4CCN(C5CCN(C)CC5)CC4)c3)cnn2c(N)c1-c1cccc(Cl)c1`, with 180 to 185 °C.
As for `COC(=O)c1nc(Br)cc(N=[N+]=[N-])c1Cl`, the melting point was in the range of 84 to 86 °C.
In turn, `O=C(O)CN1C(=O)OC[C@@H]1c1ccccc1` came in with a melting point of 106 to 108 °C.
`COc1cc2c(cc1OCc1ccccc1)CCN(Cc1cccc(O)c1)C2` came in with a melting point of 78 to 79 °C.
`CC1=C(OCC(C)C)CC(C)(C)C1=O`: the melting point amounted to 63 °C.
For `CCCCCCCNC(=O)N(C)c1cccc(-c2ccc(CCC(=O)O)cn2)c1`, the melting point came out at 118 °C.
Under `COC(=O)C1CC(=O)C(NC(C)=O)=C(O)C1` (stereo unspecified) stands 131 to 132 °C; under `CN(C)CCNc1ccc(CNS(C)(=O)=O)c2sc3ccccc3c(=O)c12`, 126 to 127 °C; under `Cn1c(=O)c(-c2c(Cl)cccc2Cl)cc2cnc(N)cc21`, 239 to 240 °C.
Molecule `Cc1nc2c(c3c1[nH]c1ccccc13)C(=O)CC(C)(C)C2` yielded a melting point of 176 to 177 °C.
Turning to `C=C(C)C(=O)NCCCC(=O)Nc1cc(Cl)c(C)c(Cl)c1O`, the melting point lay in the range of 119 to 121 °C.
In turn, `Cc1cccc(SSc2cccc(C)c2C(=O)Nc2ccc(S(N)(=O)=O)cc2)c1C(=O)Nc1ccc(S(N)(=O)=O)cc1` showed a melting point of 273 to 275 °C.
Under `COCNC(=O)NC1CCCc2ccccc21` (stereo unspecified) stands 124 to 128 °C.
Then `O=CNC(O)C(Cl)(Cl)CCl` (stereo unspecified), with 105 to 109 °C.
